Laboratory results as given in patent publication US5206148A, “Method for assaying aliphatic alcohol, aliphatic aldehyde or ω-carboxylic acid derivatives thereof” (Asahi Kasei Kogyo Kabushiki Kaisha, priority 1991, dated 1993).

Legend:
Format in all cases: biochemical, Streptomyces sp. AC 8205
ω-carboxyalcohol oxidase [1] = assay: Effects of reagents (detergents and metal ions) on enzyme activity; conditions: None = 100
Description: (§1) An enzyme solution (25 μl) was added to the above mixture (0.5 ml), followed by incubation at 37° C. for exactly 10 mins., whereupon sodium dodecyl sulfate (SDS) (0.5 ml) was added thereto, then absorbance at 545 nm was measured. One unit of enzyme is defined by the activity which generates 1 μmole of hydrogen peroxide per minute.
The effects of various detergent and metal ions are shown in Table 4, in which the listed reagents show no significant effect on the enzyme. Activities of the enzyme are measured by adding each listed detergent and metal ion to the assay method described above at item 1.

ω-carboxyalcohol oxidase [2] = assay: Substrate specificity of ω-carboxyalcohol oxidase (peroxidase/4-aminoantipyrine H2O2 assay); set-up: Relative Activity (%): concentration or dose not given beside the values; conditions: for Relative Activity (%): substrate in place of 12-hydroxydodecanoic acid, activity on 12-hydroxydodecanoic acid defined as 100, pH 7.5, 37° C., 10 mins.; for Substrate specificity: statement in words, from Table 2
Description: as §1
Assay method: In the assay method illustrated at item 1. hereinabove, 12-hydroxydodecanoic acid was replaced by the substrates indicated in Table 2, and the resulting relative activities were produced, defining the activity on 12-hydroxydodecanoic acid as 100.

ω-carboxyalcohol oxidase [3] = assay: Utilization of coenzyme (absorbance at 340 nm); conditions: for A340nm: 37° C., one unit of enzyme, 12-hydroxydodecanoic acid; for Utilization of coenzyme: statement in words
Description: One unit of enzyme is added to the reaction mixture (2.0 ml) hereinabove and the absorbance at 340 nm and 37° C. is continuously measured.

In the case of `[Ca+2].[Cl-].[Cl-]` [CaCl], the “Relative Activity (%)” value (ω-carboxyalcohol oxidase [1]; reagent 1 mM) was 97.0%.

For `C[C@H](CCC(=O)O)[C@H]1CC[C@H]2[C@@H]3[C@H](O)C[C@@H]4C[C@H](O)CC[C@]4(C)[C@H]3C[C@H](O)[C@]12C` [Cholate], the “Relative Activity (%)” value (ω-carboxyalcohol oxidase [1]; reagent 10 mM) was 94.9%.

For `C[C@H](CCC(=O)O)[C@H]1CC[C@H]2[C@@H]3CC[C@@H]4C[C@H](O)CC[C@]4(C)[C@H]3C[C@H](O)[C@]12C` [Deoxycholate], the “Relative Activity (%)” value (ω-carboxyalcohol oxidase [1]; reagent 10 mM) was 94.9%.

With `CCCO` [H3 C--(CH2)2 --OH] the “Relative Activity (%)” value (ω-carboxyalcohol oxidase [2]) was 6.6%.

In the case of `CCCCO` [H3 C--(CH2)3 --OH], the “Relative Activity (%)” value (ω-carboxyalcohol oxidase [2]) was 76.1%.

For `CCCCCCO` [H3 C--(CH2)5 --OH], the Substrate specificity (ω-carboxyalcohol oxidase [2]) was “has substrate specificity” and the “Relative Activity (%)” value (ω-carboxyalcohol oxidase [2]) was 88.5%.

For `CCCCCCCCC=CCCCCCCCCO` [H3 C--(CH2)7 --CH=CH--(CH2)8 --OH], the “Relative Activity (%)” value (ω-carboxyalcohol oxidase [2]) was 59.1%.

In the case of `CCCCCCCCO` [H3 C--(CH2)7 --OH], the Substrate specificity (ω-carboxyalcohol oxidase [2]) was “has substrate specificity” and the “Relative Activity (%)” value (ω-carboxyalcohol oxidase [2]) was 88.5%.

`CCCCCCCCCCO` [H3 C--(CH2)9 --OH] was tested, and the Substrate specificity (ω-carboxyalcohol oxidase [2]) was “has substrate specificity” and the “Relative Activity (%)” value (ω-carboxyalcohol oxidase [2]) was 87.6%.

`CCCCCCCCCCCCO` [H3 C--(CH2)11 --OH] was tested, and the Substrate specificity (ω-carboxyalcohol oxidase [2]) was “has substrate specificity” and the “Relative Activity (%)” value (ω-carboxyalcohol oxidase [2]) was 86.1%.

With `CCCCCCCCCCCCCCO` [H3 C--(CH2)13 --OH] the “Relative Activity (%)” value (ω-carboxyalcohol oxidase [2]) was 76.1%.

`CCCCCCCCCCCCCCCCO` [H3 C--(CH2)15 --OH] was tested, and the “Relative Activity (%)” value (ω-carboxyalcohol oxidase [2]) was 60.2%.

In the case of `CCO` [H3 C--CH2 --OH, ethanol], the Substrate specificity (ω-carboxyalcohol oxidase [2]) was “no specificity” and the “Relative Activity (%)” value (ω-carboxyalcohol oxidase [2]) was 0%.

In the case of `CO` [H3 C--OH, methanol], the Substrate specificity (ω-carboxyalcohol oxidase [2]) was “no specificity” and the “Relative Activity (%)” value (ω-carboxyalcohol oxidase [2]) was 0%.

With `O=C(O)CCCCCCCCCCCO` [HO2 C--(CH2)11 --OH, 12-hydroxydodecanoic acid] the Substrate specificity (ω-carboxyalcohol oxidase [2]) was “has substrate specificity” and the “Relative Activity (%)” value (ω-carboxyalcohol oxidase [2]) was 100%.

`O=C(O)CCCCCCCCCCCCCCCO` [HO2 C--(CH2)15 --OH, 16-hydroxy hexadecanoic acid] was tested, and the “Relative Activity (%)” value (ω-carboxyalcohol oxidase [2]) was 65.5%.

`[Cl-].[K+]` [KCl] was tested, and the “Relative Activity (%)” value (ω-carboxyalcohol oxidase [1]; reagent 100 mM) was 97.6%.

`[Cl-].[Cl-].[Mg+2]` [MgCl2] was tested, and the “Relative Activity (%)” value (ω-carboxyalcohol oxidase [1]; reagent 1 mM) was 98.2%.

`[Cl][Mn][Cl]` [MnCl2] was tested, and the “Relative Activity (%)” value (ω-carboxyalcohol oxidase [1]; reagent 1 mM) was 102.4%.

Compound `NC(=O)c1ccc[n+]([C@@H]2O[C@H](COP(=O)([O-])OP(=O)(O)OC[C@H]3O[C@@H](n4cnc5c(N)ncnc54)[C@H](OP(=O)(O)O)[C@@H]3O)[C@@H](O)[C@H]2O)c1` [NADP] has an A340nm (ω-carboxyalcohol oxidase [3]; 0 min.) of 0.046, an A340nm (ω-carboxyalcohol oxidase [3]; 2 mins.) of 0.047 and an A340nm (ω-carboxyalcohol oxidase [3]; 4 mins.) of 0.045. It also gave an A340nm (ω-carboxyalcohol oxidase [3]; 6 mins.) of 0.046, an A340nm (ω-carboxyalcohol oxidase [3]; 8 mins.) of 0.046 and an A340nm (ω-carboxyalcohol oxidase [3]; 10 mins.) of 0.047. For the same compound, the Utilization of coenzyme (ω-carboxyalcohol oxidase [3]) was “No utilization”.

Work on `NC(=O)c1ccc[n+]([C@@H]2O[C@H](COP(=O)([O-])OP(=O)(O)OC[C@H]3O[C@@H](n4cnc5c(N)ncnc54)[C@H](O)[C@@H]3O)[C@@H](O)[C@H]2O)c1` [NAD] yielded an A340nm (ω-carboxyalcohol oxidase [3]; 0 min.) of 0.062, an A340nm (ω-carboxyalcohol oxidase [3]; 2 mins.) of 0.061 and an A340nm (ω-carboxyalcohol oxidase [3]; 4 mins.) of 0.060. It also gave an A340nm (ω-carboxyalcohol oxidase [3]; 6 mins.) of 0.062, an A340nm (ω-carboxyalcohol oxidase [3]; 8 mins.) of 0.061 and an A340nm (ω-carboxyalcohol oxidase [3]; 10 mins.) of 0.061. The Utilization of coenzyme (ω-carboxyalcohol oxidase [3]) was “No utilization”.

In the case of `Cl.N` [NH4 Cl], the “Relative Activity (%)” value (ω-carboxyalcohol oxidase [1]; reagent 100 mM) was 89.0%.

For `[Cl-].[Na+]` [NaCl], the “Relative Activity (%)” value (ω-carboxyalcohol oxidase [1]; reagent 100 mM) was 95.1%.

`OCC(O)CO` [glycerol] was tested, and the Substrate specificity (ω-carboxyalcohol oxidase [2]) was “no specificity” and the “Relative Activity (%)” value (ω-carboxyalcohol oxidase [2]) was 0%.

With Triton X-100 the “Relative Activity (%)” value (ω-carboxyalcohol oxidase [1]; reagent 1.0%) was 93.1%.
